Measurements reported in ChEMBL document CHEMBL3832761, “MMV Pathogen Box Bioactivity Data” (2017).
In brackets after ≈: the same amount, converted by molar mass.

Key:
Type in all cases: functional
[1] = tested on: Mycobacterium tuberculosis; assay: AntiMycobacterium tuberculosis activity Non-Replicating form: Average MIC90 (uM)
[2] = tested on: HepG2; assay: HepG2 CC50 (uM) Cytotoxicity; details: Homo sapiens
[3] = tested on: Mycobacterium tuberculosis; assay: AntiMycobacterium tuberculosis activity 1-week 7H9/cholesterol/BSA/Tx MIC (uM); details: 168 h
[4] = tested on: Mycobacterium tuberculosis; assay: AntiMycobacterium tuberculosis activity 2-week 7H9/glucose/BSA/Tx MIC (uM); details: 336 h
[5] = tested on: Mycobacterium tuberculosis; assay: AntiMycobacterium tuberculosis activity 2-week 7H9/ADC/Tw MIC (uM); details: 336 h
[6] = tested on: Mycobacterium tuberculosis; assay: AntiMycobacterium tuberculosis activity 2-week Alamar Blue 7H9/cholesterol/BSA/Tx MIC (uM); details: 336 h
[7] = tested on: Mycobacterium tuberculosis; assay: (§1) AntiMycobacterium tuberculosis activity day 10 in 7H9/2.5mM butyrate/pH6/0.1mM nitrite MIC90 (uM); details: 240 h
[8] = tested on: Mycobacterium tuberculosis; assay: as §1; details: 240 h; remark: listed apart in the source
[9] = tested on: Mycobacterium tuberculosis; assay: AntiMycobacterium tuberculosis activity 1-week 7H9/DPPC/cholesterol/BSA/Tx MIC (uM); details: 168 h
[10] = tested on: Mycobacterium tuberculosis; assay: AntiMycobacterium tuberculosis activity 2-week Alamar Blue 7H9/ADC/Tw MIC (uM); details: 336 h
[11] = tested on: Mycobacterium tuberculosis; assay: AntiMycobacterium tuberculosis activity day 21 MIC99 in 7H9/2.5mM butyrate/pH6/0.1mM nitrite MIC99 (uM); details: 504 h
[12] = tested on: Mycobacterium tuberculosis; assay: AntiMycobacterium tuberculosis activity day 21 in 7H9/2.5mM butyrate/pH6/0.1mM nitrite MIC90 (uM); details: 504 h
[13] = tested on: Mycobacterium tuberculosis; assay: AntiMycobacterium tuberculosis activity 1-week GAST/Fe MIC (uM); details: 168 h
[14] = tested on: Mycobacterium tuberculosis; assay: AntiMycobacterium tuberculosis activity Replicating form: Average MIC90 (uM)
[15] = tested on: Mycobacterium tuberculosis; assay: AntiMycobacterium tuberculosis activity 1-week 7H9/glucose/BSA/Tx MIC (uM); details: 168 h
[16] = tested on: Mycobacterium tuberculosis; assay: AntiMycobacterium tuberculosis activity 2-week 7H9/DPPC/cholesterol/BSA/Tx MIC (uM); details: 336 h
[17] = tested on: Mycobacterium tuberculosis; assay: AntiMycobacterium tuberculosis activity 2-week GAST/Fe MIC (uM); details: 336 h
[18] = tested on: Mycobacterium tuberculosis; assay: AntiMycobacterium tuberculosis activity 1-week 7H9/ADC/Tw MIC (uM); details: 168 h

Row | Compound | MIC90 [1] | CC50 [2] | MIC [3] | MIC [4] | MIC [5] | MIC [6] | MIC90 [7] | MIC90 [8] | MIC [9] | MIC [10] | MIC [11] | MIC90 [12] | MIC [13] | MIC90 [14] | MIC [15] | MIC [16] | MIC [17] | MIC [18]
1 | Nc1ncnc2c1ncn2[C@@H]1O[C@H](COS(=O)(=O)NC(=O)c2ccccc2O)[C@@H](O)[C@H]1O | > 100 µM | > 100 µM | > 50 µM | > 50 µM | > 50 µM | > 50 µM | > 50 µM | > 50 µM | > 50 µM | 9.4 µM (≈ 4.38 µg/mL) | > 50 µM | > 50 µM | 0.3 µM (≈ 0.14 µg/mL) | > 100 µM | > 50 µM | > 50 µM | 0.6 µM (≈ 0.28 µg/mL) | > 50 µM
2 | c1cncc(NCc2ccc(-c3cc4ccncc4cc3OC3CCNCC3)s2)c1 | 58.7 µM (≈ 24.5 µg/mL) | 8 µM | 50 µM (≈ 20.8 µg/mL) | ≥ 50 µM | 37 µM (≈ 15.4 µg/mL) | 37 µM (≈ 15.4 µg/mL) | > 50 µM | > 50 µM | 50 µM (≈ 20.8 µg/mL) | 12.5 µM (≈ 5.21 µg/mL) | > 50 µM | > 50 µM | 3.13 µM (≈ 1.3 µg/mL) | 11.8 µM (≈ 4.92 µg/mL) | ≥ 50 µM | 50 µM (≈ 20.8 µg/mL) | 4.7 µM (≈ 1.96 µg/mL) | 50 µM (≈ 20.8 µg/mL)
3 | CC(Oc1ccccc1)C(=O)Nc1nc(-c2ccccn2)cs1 (configuration not stated) | 41.7 µM (≈ 13.6 µg/mL) | 29.3 µM | 9.4 µM (≈ 3.06 µg/mL) | 50 µM (≈ 16.3 µg/mL) | 12.5 µM (≈ 4.07 µg/mL) | 19 µM (≈ 6.18 µg/mL) | 6.25 µM (≈ 2.03 µg/mL) | 12.5 µM (≈ 4.07 µg/mL) | 25 µM (≈ 8.13 µg/mL) | 12.5 µM (≈ 4.07 µg/mL) | 6.25 µM (≈ 2.03 µg/mL) | 12.5 µM (≈ 4.07 µg/mL) | 1.56 µM (≈ 0.508 µg/mL) | 91.3 µM (≈ 29.7 µg/mL) | 12.5 µM (≈ 4.07 µg/mL) | > 50 µM | 2.3 µM (≈ 0.748 µg/mL) | 12.5 µM (≈ 4.07 µg/mL)
4 | Cn1ccnc1CNCCS(=O)(=O)c1cccc(Nc2ccc(-c3cccc(F)c3)cn2)c1 | > 100 µM | 46.1 µM | 25 µM (≈ 11.6 µg/mL) | > 50 µM | > 50 µM | 37 µM (≈ 17.2 µg/mL) | > 50 µM | > 50 µM | 12.5 µM (≈ 5.82 µg/mL) | > 50 µM | > 50 µM | > 50 µM | 25 µM (≈ 11.6 µg/mL) | > 100 µM | 19 µM (≈ 8.85 µg/mL) | ≥ 50 µM | 25 µM (≈ 11.6 µg/mL) | 50 µM (≈ 23.3 µg/mL)
5 | O=C(NCCc1c[nH]c2ccccc12)c1cc2ccccc2oc1=O | 4.78 µM (≈ 1.59 µg/mL) | > 100 µM | 1.2 µM (≈ 0.399 µg/mL) | 1.56 µM (≈ 0.518 µg/mL) | 0.78 µM (≈ 0.259 µg/mL) | 4.7 µM (≈ 1.56 µg/mL) | > 50 µM | 12.5 µM (≈ 4.15 µg/mL) | 1.56 µM (≈ 0.518 µg/mL) | 0.78 µM (≈ 0.259 µg/mL) | > 50 µM | 50 µM (≈ 16.6 µg/mL) | 0.3 µM (≈ 0.0997 µg/mL) | 7.71 µM (≈ 2.56 µg/mL) | 0.78 µM (≈ 0.259 µg/mL) | 3.13 µM (≈ 1.04 µg/mL) | 0.6 µM (≈ 0.199 µg/mL) | 0.78 µM (≈ 0.259 µg/mL)
6 | O=C(Nc1nc(-c2ccccn2)cs1)c1cncn1-c1ccccc1 | 32.5 µM (≈ 11.3 µg/mL) | 3.8 µM | 9.4 µM (≈ 3.27 µg/mL) | 25 µM (≈ 8.69 µg/mL) | 25 µM (≈ 8.69 µg/mL) | 12.5 µM (≈ 4.34 µg/mL) | > 50 µM | 6.25 µM (≈ 2.17 µg/mL) | 9.4 µM (≈ 3.27 µg/mL) | 19 µM (≈ 6.6 µg/mL) | > 50 µM | 12.5 µM (≈ 4.34 µg/mL) | 1.56 µM (≈ 0.542 µg/mL) | 82.7 µM (≈ 28.7 µg/mL) | 19 µM (≈ 6.6 µg/mL) | 25 µM (≈ 8.69 µg/mL) | 3.13 µM (≈ 1.09 µg/mL) | 19 µM (≈ 6.6 µg/mL)
7 | Cc1ccc2oc(-c3cc(NC(=O)Cc4ccccc4)ccc3Cl)nc2c1 | > 100 µM | 83.6 µM | 25 µM (≈ 9.42 µg/mL) | 25 µM (≈ 9.42 µg/mL) | 25 µM (≈ 9.42 µg/mL) | 25 µM (≈ 9.42 µg/mL) | > 50 µM | > 50 µM | 12.5 µM (≈ 4.71 µg/mL) | 25 µM (≈ 9.42 µg/mL) | > 50 µM | > 50 µM | 6.25 µM (≈ 2.36 µg/mL) | 3.58 µM (≈ 1.35 µg/mL) | 25 µM (≈ 9.42 µg/mL) | 12.5 µM (≈ 4.71 µg/mL) | 9.4 µM (≈ 3.54 µg/mL) | 25 µM (≈ 9.42 µg/mL)
8 | COc1ccc2nc(C)cc(OCC(=O)Nc3ccccc3OC)c2c1 | 1.61 µM (≈ 0.567 µg/mL) | 57.4 µM | 12.5 µM (≈ 4.4 µg/mL) | 50 µM (≈ 17.6 µg/mL) | > 50 µM | 2.3 µM (≈ 0.81 µg/mL) | > 50 µM | > 50 µM | 1.56 µM (≈ 0.55 µg/mL) | 2.3 µM (≈ 0.81 µg/mL) | > 50 µM | > 50 µM | 0.05 µM (≈ 0.0176 µg/mL) | > 50 µM | 25 µM (≈ 8.81 µg/mL) | 25 µM (≈ 8.81 µg/mL) | 0.1 µM (≈ 0.0352 µg/mL) | 37 µM (≈ 13 µg/mL)
9 | CCCCS(=O)(=O)Nc1ccc2cnn(C)c2c1 | 1.39 µM (≈ 0.372 µg/mL) | > 100 µM | 0.6 µM (≈ 0.16 µg/mL) | 0.78 µM (≈ 0.209 µg/mL) | 0.6 µM (≈ 0.16 µg/mL) | 2.3 µM (≈ 0.615 µg/mL) | > 50 µM | 12.5 µM (≈ 3.34 µg/mL) | 0.39 µM (≈ 0.104 µg/mL) | 0.6 µM (≈ 0.16 µg/mL) | 50 µM (≈ 13.4 µg/mL) | 50 µM (≈ 13.4 µg/mL) | 0.3 µM (≈ 0.0802 µg/mL) | 0.69 µM (≈ 0.184 µg/mL) | 0.39 µM (≈ 0.104 µg/mL) | 0.6 µM (≈ 0.16 µg/mL) | 0.6 µM (≈ 0.16 µg/mL) | 0.6 µM (≈ 0.16 µg/mL)
